What was measured:
[1] = target: T1, human TRPA1 (Homo sapiens, UniProt O75762); assay: 45Calcium uptake assay: inhibition of AITC induced cellular uptake of radioactive calcium, human TRPA1 expressing CHO cells; type: cell-based; settings: AITC 30 μM; for inhibition at 1 µM: 1.0 μM compound, read-out: human TRPA1 Percentage inhibition at 1.0 μM; for inhibition at 10 µM: 10.0 μM compound, read-out: human TRPA1 Percentage inhibition at 10.0 μM; for IC50: class symbols
T1 construct: expressed in transfected cells; host or cells: CHO cells (G-418 selection)
Excerpt: The illustrative examples of the present invention are screened for TRPA1 activity according to a modified procedure described in (a) Tóth, A. et al. Life Sciences, 2003, 73, 487-498. (b) McNamara C, R. et al, Proc. Natl. Acad. Sci. U.S.A., 2007, 104, 13525-13530. The screening of the compounds can be carried out by other methods and procedures known to persons skilled in the art.
(§1) Screening for TRPA1 Antagonist Using the ^45Calcium Uptake Assay:
(§2) The inhibition of TRPA1 receptor activation was measured as inhibition of allyl isothiocyanate (AITC) induced cellular uptake of radioactive calcium.
Test compounds were dissolved in 100% DMSO to prepare 10 mM stock and then diluted using plain medium with 0.1% BSA and 1.8 mM CaCl2 to get the desired concentration. The final concentration of DMSO in the reaction was 0.5% (v/v). Human TRPA1 expressing CHO cells were grown in F-12 DMEM medium with 10% FBS, 1% penicillin-streptomycin solution, and 400 μg/ml of G-418. Rat TRPA1 expressing CHO cells were grown in F-12 DMEM medium with 10% FBS, 1% penicillin-streptomycin solution, and 400 μg/ml of Zeocin. Cells were seeded 24 h prior to the assay in 96 well plates so as to get ˜50,000 cells per well on the day of experiment. Cells were treated with the test compounds for 10 minutes followed by the addition of AITC at a final concentration of 30 μM (for human TRPA1) and/or 10 μM (for rat TRPA1) and 5 μCi/ml ^45Ca^+2 for 3 minutes. Cells were washed and lysed using a buffer containing 1% Triton X-100, 0.1% deoxycholate and 0.1% SDS. Radioactivity in the lysate was measured in a Packard TopCount after addition of liquid scintillant. (Toth et al, Life Sciences (2003) 73, 487-498; McNamara C R et al, Proceedings of the National Academy of Sciences, (2007) 104, 13525-13530).
(§3) Concentration response curves were plotted as a % of maximal response obtained in the absence of test antagonist. IC50 values can be calculated from concentration response curve by nonlinear regression analysis using GraphPad PRISM software.

[2] = target: T2, rat TRPA1 (Rattus norvegicus, UniProt Q6RI86); assay: 45Calcium uptake assay: inhibition of AITC induced cellular uptake of radioactive calcium, rat TRPA1 expressing CHO cells; type: cell-based; settings: AITC 10 μM; for inhibition at 10 µM: 10.0 μM compound, read-out: rat TRPA1 Percentage inhibition at 10.0 μM; for inhibition at 1 µM: read-out: rat TRPA1 Percentage inhibition; for IC50: class symbols
T2 construct: expressed in transfected cells; host or cells: CHO cells (Zeocin selection)
Description: as §1, §2
Test compounds were dissolved in 100% DMSO to prepare 10 mM stock and then diluted using plain medium with 0.1% BSA and 1.8 mM CaCl2 to get the desired concentration. The final concentration of DMSO in the reaction was 0.5% (v/v). […] Rat TRPA1 expressing CHO cells were grown in F-12 DMEM medium with 10% FBS, 1% penicillin-streptomycin solution, and 400 μg/ml of Zeocin. […] Cells were treated with the test compounds for 10 minutes followed by the addition of AITC at a final concentration of 30 μM (for human TRPA1) and/or 10 μM (for rat TRPA1) and 5 μCi/ml ^45Ca^+2 for 3 minutes. Cells were washed and lysed using a buffer containing 1% Triton X-100, 0.1% deoxycholate and 0.1% SDS. Radioactivity in the lysate was measured in a Packard TopCount after addition of liquid scintillant.
as §3

T1 sequence (O75762 whole entry): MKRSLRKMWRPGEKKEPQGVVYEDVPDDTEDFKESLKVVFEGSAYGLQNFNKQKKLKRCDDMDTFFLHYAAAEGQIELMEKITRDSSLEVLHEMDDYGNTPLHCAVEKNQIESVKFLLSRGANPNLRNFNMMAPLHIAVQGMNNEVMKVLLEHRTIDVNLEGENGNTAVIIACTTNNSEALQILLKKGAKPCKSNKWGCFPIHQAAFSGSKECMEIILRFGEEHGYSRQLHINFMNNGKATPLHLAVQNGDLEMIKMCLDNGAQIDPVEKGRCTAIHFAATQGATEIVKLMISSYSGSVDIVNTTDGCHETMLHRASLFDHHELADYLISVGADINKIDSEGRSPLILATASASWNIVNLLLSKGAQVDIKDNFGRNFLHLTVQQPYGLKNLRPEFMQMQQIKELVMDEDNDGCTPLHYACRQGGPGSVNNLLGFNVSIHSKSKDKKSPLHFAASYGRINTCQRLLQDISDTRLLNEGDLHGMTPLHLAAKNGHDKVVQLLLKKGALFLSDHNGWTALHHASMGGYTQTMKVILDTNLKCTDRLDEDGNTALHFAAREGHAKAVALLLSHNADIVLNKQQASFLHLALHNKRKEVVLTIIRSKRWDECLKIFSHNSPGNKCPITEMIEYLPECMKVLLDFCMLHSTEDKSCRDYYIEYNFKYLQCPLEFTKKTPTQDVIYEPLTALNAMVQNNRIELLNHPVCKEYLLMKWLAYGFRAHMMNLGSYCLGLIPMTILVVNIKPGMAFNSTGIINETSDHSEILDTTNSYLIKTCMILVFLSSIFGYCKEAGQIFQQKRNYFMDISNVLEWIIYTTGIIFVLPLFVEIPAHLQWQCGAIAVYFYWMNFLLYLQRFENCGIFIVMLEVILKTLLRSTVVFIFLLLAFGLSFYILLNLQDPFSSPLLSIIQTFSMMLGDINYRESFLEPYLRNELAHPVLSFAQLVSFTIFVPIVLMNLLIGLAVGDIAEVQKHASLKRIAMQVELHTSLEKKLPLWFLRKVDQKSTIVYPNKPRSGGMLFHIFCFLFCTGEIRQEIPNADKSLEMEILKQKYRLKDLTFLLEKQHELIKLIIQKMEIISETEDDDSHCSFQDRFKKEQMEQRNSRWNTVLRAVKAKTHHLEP
T2 sequence (Q6RI86 whole entry): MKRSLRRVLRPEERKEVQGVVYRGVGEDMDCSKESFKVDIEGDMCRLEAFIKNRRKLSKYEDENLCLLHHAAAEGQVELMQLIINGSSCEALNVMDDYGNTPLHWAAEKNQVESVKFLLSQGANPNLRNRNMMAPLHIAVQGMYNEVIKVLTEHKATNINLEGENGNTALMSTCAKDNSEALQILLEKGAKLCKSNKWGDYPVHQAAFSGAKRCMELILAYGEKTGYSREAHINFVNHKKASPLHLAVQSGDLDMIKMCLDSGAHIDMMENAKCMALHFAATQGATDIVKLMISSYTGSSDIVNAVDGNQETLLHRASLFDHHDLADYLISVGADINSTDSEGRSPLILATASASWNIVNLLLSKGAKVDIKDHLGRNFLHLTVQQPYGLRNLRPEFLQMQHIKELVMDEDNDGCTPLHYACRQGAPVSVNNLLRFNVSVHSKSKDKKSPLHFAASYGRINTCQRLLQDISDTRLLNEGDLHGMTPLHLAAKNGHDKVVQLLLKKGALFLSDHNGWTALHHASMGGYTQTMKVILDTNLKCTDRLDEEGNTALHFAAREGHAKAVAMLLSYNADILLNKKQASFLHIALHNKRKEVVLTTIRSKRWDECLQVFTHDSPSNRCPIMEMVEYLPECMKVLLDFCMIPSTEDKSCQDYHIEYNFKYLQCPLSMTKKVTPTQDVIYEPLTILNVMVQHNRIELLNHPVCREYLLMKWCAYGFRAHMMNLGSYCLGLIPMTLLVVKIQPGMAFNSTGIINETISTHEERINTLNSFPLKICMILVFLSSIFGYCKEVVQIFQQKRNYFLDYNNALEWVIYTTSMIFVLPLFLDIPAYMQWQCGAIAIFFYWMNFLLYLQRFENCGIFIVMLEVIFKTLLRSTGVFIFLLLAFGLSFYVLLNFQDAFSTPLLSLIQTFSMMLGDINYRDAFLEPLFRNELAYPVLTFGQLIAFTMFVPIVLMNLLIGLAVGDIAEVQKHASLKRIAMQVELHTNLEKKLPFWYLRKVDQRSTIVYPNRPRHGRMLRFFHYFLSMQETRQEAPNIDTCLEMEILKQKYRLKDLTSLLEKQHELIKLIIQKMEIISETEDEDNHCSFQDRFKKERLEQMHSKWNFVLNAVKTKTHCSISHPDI

| inhibition at 1 µM [1] | inhibition at 10 µM [1] | IC50 [1] | inhibition at 10 µM [2] | inhibition at 1 µM [2] | IC50 [2] | Structure (SMILES) |
| --- | --- | --- | --- | --- | --- | --- |
| 99.4% | 99.7% | < 50 nM | 100% | 100% | < 50 nM | Cn1c(=O)c2c(CC(=O)Nc3nc(-c4ccc(C(F)(F)F)c(F)c4)cs3)coc2n(C)c1=O [Example 14, N1-{4-[3-Fluoro-4-(trifluoromethyl)phenyl]-1,3-thiazol-2-yl}-2-(1,3-dimethyl-2,4-dioxo-1,2,3,4-tetrahydrofuro[2,3-d]pyrimidin-5-yl)acetamide] |
| 99.9% | 99.8% | < 50 nM | 99% | 100% | < 50 nM | Cn1c(=O)c2c(CC(=O)Nc3nc(-c4ccc(F)c(C(F)(F)F)c4)cs3)coc2n(C)c1=O [Example 15, N1-{4-[4-Fluoro-3-(trifluoromethyl)phenyl]-1,3-thiazol-2-yl}-2-(1,3-dimethyl-2,4-dioxo-1,2,3,4-tetrahydrofuro[2,3-d]pyrimidin-5-yl)acetamide] |
| 98.5% | 99.2% | < 50 nM | 98.6% | 100% | < 50 nM | Cn1c(=O)c2c(CC(=O)Nc3nc(-c4ccc(F)c(OC(F)(F)F)c4)cs3)coc2n(C)c1=O [Example 16, N1-{4-[4-Fluoro-3-(trifluoromethoxy)phenyl]-1,3-thiazol-2-yl}-2-(1,3-dimethyl-2,4-dioxo-1,2,3,4-tetrahydrofuro[2,3-d]pyrimidin-5-yl)acetamide] |
| 99.9% | 100% | < 50 nM | 99.8% | 97.7% | 50 to 100 nM | Cn1c(=O)c2c(CC(=O)Nc3nc(-c4ccc(OC(F)(F)F)c(F)c4)cs3)coc2n(C)c1=O [Example 17, N1-{4-[3-Fluoro-4-(trifluoromethoxy)phenyl]-1,3-thiazol-2-yl}-2-(1,3-dimethyl-2,4-dioxo-1,2,3,4-tetrahydrofuro[2,3-d]pyrimidin-5-yl)acetamide] |
| 99.9% | 100% | < 50 nM | 94.1% | 99.9% | 50 to 100 nM | Cn1c(=O)c2c(CC(=O)Nc3nc(-c4ccc(Cl)c(C(F)(F)F)c4)cs3)coc2n(C)c1=O [Example 18, N1-{4-[4-Chloro-3-(trifluoromethyl)phenyl]-1,3-thiazol-2-yl}-2-(1,3-dimethyl-2,4-dioxo-1,2,3,4-tetrahydrofuro[2,3-d]pyrimidin-5-yl)acetamide] |
| 99.9% | 100% | < 50 nM | 98.2% | 98.9% | 50 to 100 nM | Cn1c(=O)c2c(CC(=O)Nc3nc(-c4ccc(Cl)c(OC(F)(F)F)c4)cs3)coc2n(C)c1=O [Example 19, N1-{4-[4-Chloro-3-(trifluoromethoxy)phenyl]-1,3-thiazol-2-yl]-2-(1,3-dimethyl-2,4-dioxo-1,2,3,4-tetrahydrofuro[2,3-d]pyrimidin-5-yl)acetamide] |
| 98.5% | 97.5% | < 50 nM | 99.8% | 96.8% | < 50 nM | Cn1c(=O)c2c(CC(=O)Nc3nc(-c4cccc(C(F)(F)F)c4F)cs3)coc2n(C)c1=O [Example 20, N1-{4-[2-Fluoro-3-(trifluoromethyl)phenyl]-1,3-thiazol-2-yl}-2-(1,3-dimethyl-2,4-dioxo-1,2,3,4-tetrahydrofuro[2,3-d]pyrimidin-5-yl)acetamide] |
| 99.8% | 99.8% | < 50 nM | 99.9% | 98.9% | < 50 nM | Cn1c(=O)c2c(CC(=O)Nc3nc(-c4cc(F)cc(C(F)(F)F)c4)cs3)coc2n(C)c1=O [Example 21, N1-{4-[3-Fluoro-5-(trifluoromethyl)phenyl]-1,3-thiazol-2-yl}-2-(1,3-dimethyl-2,4-dioxo-1,2,3,4-tetrahydrofuro[2,3-d]pyrimidin-5-yl)acetamide] |
| 99.3% | 98.5% | < 50 nM | 100% | 100% | – | Cn1c(=O)c2c(CC(=O)Nc3nc(-c4ccc(C(F)(F)F)cc4F)cs3)coc2n(C)c1=O [Example 22, N1-{4-[2-Fluoro-4-(trifluoromethyl)phenyl]-1,3-thiazol-2-yl}-2-(1,3-dimethyl-2,4-dioxo-1,2,3,4-tetrahydrofuro[2,3-d]pyrimidin-5-yl)acetamide] |
| 96.3% | 99% | < 50 nM | 95.5% | 92.6% | > 100 nM | Cn1c(=O)c2c(CC(=O)Nc3nc(-c4ccc(OC(F)F)c(F)c4)cs3)coc2n(C)c1=O [Example 23, N1-[4-(3-Fluoro-4-difluoromethoxyphenyl)-1,3-thiazol-2-yl]-2-(1,3-dimethyl-2,4-dioxo-1,2,3,4-tetrahydrofuro[2,3-d]pyrimidin-5-yl)acetamide] |
| 97.4% | 99.8% | < 50 nM | 99.6% | 100% | > 100 nM | Cn1c(=O)c2c(CC(=O)Nc3nc(-c4ccc(OC(F)F)c(Cl)c4)cs3)coc2n(C)c1=O [Example 24, N1-[4-(3-Chloro-4-difluoromethoxyphenyl)-1,3-thiazol-2-yl]-2-(1,3-dimethyl-2,4-dioxo-1,2,3,4-tetrahydrofuro[2,3-d]pyrimidin-5-yl)acetamide] |
| 97.6% | 99.3% | < 50 nM | 99.9% | 98.6% | – | Cn1c(=O)c2c(CC(=O)Nc3nc(-c4ccc(OCC(C)(C)C)c(F)c4)cs3)coc2n(C)c1=O [Example 26, N1-{4-[4-(2,2-Dimethylpropoxy)-3-fluorophenyl]-1,3-thiazol-2-yl}-2-(1,3-dimethyl-2,4-dioxo-1,2,3,4-tetrahydrofuro[2,3-d]pyrimidin-5-yl)acetamide] |
| 97.1% | 99.2% | > 100 nM | 100% | 93.1% | – | Cn1c(=O)c2c(CC(=O)Nc3nc(-c4ccc(OCC(C)(C)C)c(Cl)c4)cs3)coc2n(C)c1=O [Example 27, N1-{4-[3-Chloro-4-(2,2-dimethylpropoxy)phenyl]-1,3-thiazol-2-yl}-2-(1,3-dimethyl-2,4-dioxo-1,2,3,4-tetrahydrofuro[2,3-d]pyrimidin-5-yl)acetamide] |
| 96.7% | 99.3% | > 100 nM | 100% | 98.5% | – | Cn1c(=O)c2c(CC(=O)Nc3nc(-c4ccc(OCC(C)(C)C)c(Br)c4)cs3)coc2n(C)c1=O [Example 28, N1-{4-[3-Bromo-4-(2,2-dimethylpropoxy)phenyl]-1,3-thiazol-2-yl}-2-(1,3-dimethyl-2,4-dioxo-1,2,3,4-tetrahydrofuro[2,3-d]pyrimidin-5-yl)acetamide] |

— US20120178766A1, “FUROPYRIMIDINEDIONE DERIVATIVES AS TRPAI MODULATORS” (priority 2009, published 2012)
